# Measured values from ChEMBL document CHEMBL1132165, “Analogues of neuroactive polyamine wasp toxins that lack inner basic sites exhibit enhanced antagonism toward a muscle-type mammalian nicotinic acetylcholine receptor” (J Med Chem, 1999).
# Experiments:
# Details in all cases: TE-671
# [1] = molecular target: Acetylcholine receptor subunit alpha (Homo sapiens) (UniProt P02708)
# Description: Proteolytic properties against human muscle type nicotinic Acetylcholine receptor(nAchr) from TE671 cells, expressed as acidity constant (pKa1)
# [2] = molecular target: Acetylcholine receptor subunit alpha (Homo sapiens) (UniProt P02708); remark: listed apart in the source
# Description: Proteolytic properties against human muscle type nicotinic Acetylcholine receptor(nAchr) from TE671 cells, expressed as acidity constant (pKa2)
# [3] = molecular target: Acetylcholine receptor subunit alpha (Homo sapiens) (UniProt P02708); remark: listed apart in the source
# Description: Proteolytic properties against human muscle type nicotinic Acetylcholine receptor(nAchr) from TE671 cells, expressed as acidity constant (pKa3)
# [4] = molecular target: Acetylcholine receptor subunit alpha (Homo sapiens) (UniProt P02708); assay: […] properties against human muscle type nicotinic Acetylcholine receptor (nAchr) from TE671 cells, expressed as acidity constant (pKa1); assay type: functional, cell-based
# Chain of Acetylcholine receptor subunit alpha (Homo sapiens) (P02708 whole entry): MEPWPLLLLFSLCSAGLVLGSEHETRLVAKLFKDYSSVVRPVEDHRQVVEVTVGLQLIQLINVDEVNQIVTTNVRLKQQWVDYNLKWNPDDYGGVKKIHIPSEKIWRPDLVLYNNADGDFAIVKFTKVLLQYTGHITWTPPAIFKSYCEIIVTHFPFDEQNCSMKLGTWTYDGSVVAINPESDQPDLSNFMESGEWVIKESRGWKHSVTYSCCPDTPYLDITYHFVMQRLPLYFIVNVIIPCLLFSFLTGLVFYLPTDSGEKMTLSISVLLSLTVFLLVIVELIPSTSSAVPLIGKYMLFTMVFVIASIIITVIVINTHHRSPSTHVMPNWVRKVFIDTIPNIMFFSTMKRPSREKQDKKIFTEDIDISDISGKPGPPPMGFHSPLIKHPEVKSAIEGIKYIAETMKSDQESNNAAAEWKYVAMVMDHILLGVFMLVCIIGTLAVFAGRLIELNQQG
SMILES,pKa1 [1],pKa2 [2],pKa3 [3],pKa1 [4]
CCCC(=O)NC(Cc1ccc(O)cc1)C(=O)NCCCNCCCCCCCCN (stereo unspecified),9.71,10.4,11.3,
CCCC(=O)NC(Cc1ccc(O)cc1)C(=O)NCCCNCCCCOCCCN (stereo unspecified),9.47,10.2,10.9,
CCCC(=O)NC(Cc1ccc(O)cc1)C(=O)NCCCCCCCCNCCCN (stereo unspecified),9.32,10.2,11.4,
CCCC(=O)NC(Cc1ccc(O)cc1)C(=O)NCCCOCCCCOCCCN (stereo unspecified),,10.9,,10
CCCC(=O)NC(Cc1ccc(O)cc1)C(=O)NCCCCCCCCCCCCN (stereo unspecified),,11.3,,10.3
CCCC(=O)NC(Cc1ccc(O)cc1)C(=O)NCCCOCCCCNCCCN (stereo unspecified),9.23,10.3,11.3,
